Reference: patent US6355435B1, “Methods for detecting and enumerating Campylobacter jejuni in environmental samples and for identifying antibiotic-resistant strains” (priority 1999, dated 2002)

Tests used:
[1] = test system: ciprofloxacin-resistant Campylobacter jejuni mutants (C to T transition in codon 86 of gyrA); assay: Growth of selected mutants on BASB medium containing ciprofloxacin; assay type: cell-based; conditions: ciprofloxacin at 16 μg/ml; 12 Campylobacter mutants
[2] = test system: Campylobacter jejuni strain cj49349; assay: Growth on BASB agar supplemented with ciprofloxacin; assay type: cell-based; conditions: ciprofloxacin at 16 μg per ml; wild-type strain cj49349
[3] = test system: Campylobacter jejuni with high-level ciprofloxacin resistance; conditions: gyrA codon 86 C to T transition; cited from earlier work

SMILES: O=C(O)c1cn(C2CC2)c2cc(N3CCNCC3)c(F)cc2c1=O [ciprofloxacin]
- growth on BASB medium containing ciprofloxacin [1]: able to grow
- growth on BASB agar supplemented with ciprofloxacin [2]: unable to grow
- MIC [3]: ≥ 16 µg/mL
